Source: ChEMBL document CHEMBL1201862, “PubChem BioAssay data set” (2004)
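How tested: cells in 96-well plates exposed to compound for 48 hours at five concentrations. The concentration for 50% growth inhibition is given as GI50.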 The source made the active and inactive calls. No stated cut-off is given here; in the data, active = GI50 up to about 1.1 µM and inactive = higher.

Experiments:
Assay in all cases: NCI-60 cell line screen, 48 h
786-0 = tested on: 786-0
A498 = tested on: A498
A549 = tested on: A549
ACHN = tested on: ACHN
BT-549 = tested on: BT-549
CAKI-1 = tested on: CAKI-1
CCRF-CEM = tested on: CCRF-CEM
COLO 205 = tested on: COLO 205
DU-145 = tested on: DU-145
EKVX = tested on: EKVX
HCC 2998 = tested on: HCC 2998
HCT-116 = tested on: HCT-116
HCT-15 = tested on: HCT-15
HL-60 = tested on: HL-60
HOP-62 = tested on: HOP-62
HOP-92 = tested on: HOP-92
HT-29 = tested on: HT-29
Hs-578T = tested on: Hs-578T
IGROV-1 = tested on: IGROV-1
K562 = tested on: K562
KM12 = tested on: KM12
LOX IMVI = tested on: LOX IMVI
M14 = tested on: M14
MCF7 = tested on: MCF7
MDA-MB-231 = tested on: MDA-MB-231
MDA-MB-435 = tested on: MDA-MB-435
MDA-N = tested on: MDA-N
MOLT-4 = tested on: MOLT-4
Malme-3M = tested on: Malme-3M
NCI-H226 = tested on: NCI-H226
NCI-H23 = tested on: NCI-H23
NCI-H460 = tested on: NCI-H460
NCI-H522 = tested on: NCI-H522
NCI/ADR-RES = tested on: NCI/ADR-RES
OVCAR-3 = tested on: OVCAR-3
OVCAR-4 = tested on: OVCAR-4
OVCAR-5 = tested on: OVCAR-5
OVCAR-8 = tested on: OVCAR-8
PC-3 = tested on: PC-3
RPMI-8226 = tested on: RPMI-8226
RXF 393 = tested on: RXF 393
SF-268 = tested on: SF-268
SF-295 = tested on: SF-295
SF-539 = tested on: SF-539
SK-MEL-28 = tested on: SK-MEL-28
SK-MEL-2 = tested on: SK-MEL-2
SK-MEL-5 = tested on: SK-MEL-5
SK-OV-3 = tested on: SK-OV-3
SN12C = tested on: SN12C
SNB-19 = tested on: SNB-19
SNB-75 = tested on: SNB-75
SR = tested on: SR
SW-620 = tested on: SW-620
T47D = tested on: T47D
TK-10 = tested on: TK-10
U-251 = tested on: U-251
UACC-257 = tested on: UACC-257
UACC-62 = tested on: UACC-62
UO-31 = tested on: UO-31

CCCCCCCCCC1CC(=O)NCC(=O)NC(C(C)C)C(=O)NC(CC(C)C)C(=O)NC(C)C(=O)NC(C(C)C)C(=O)O1 (centres undefined)
GI50 (786-0): 12.2 µM (inactive)
GI50 (A498): 1.36 µM (inactive)
GI50 (A549): 17.2 µM (inactive)
GI50 (ACHN): > 79.8 µM (inactive)
GI50 (BT-549): 11.4 µM (inactive)
GI50 (CAKI-1): > 100 µM (inactive)
GI50 (CCRF-CEM): 15.7 µM (inactive)
GI50 (COLO 205): 50.4 µM (inactive)
GI50 (DU-145): 21.9 µM (inactive)
GI50 (EKVX): 21.5 µM (inactive)
GI50 (HCC 2998): > 42.7 µM (inactive)
GI50 (HCT-116): 14.8 µM (inactive)
GI50 (HCT-15): > 100 µM
GI50 (HL-60): 56.1 µM (inactive)
GI50 (HOP-62): 22.5 µM (inactive)
GI50 (HOP-92): 15.5 µM (inactive)
GI50 (HT-29): 5.9 µM (inactive)
GI50 (Hs-578T): 18 µM (inactive)
GI50 (IGROV-1): 31.9 µM (inactive)
GI50 (K562): 16.8 µM (inactive)
GI50 (KM12): 6.79 µM (inactive)
GI50 (LOX IMVI): 7.96 µM (inactive)
GI50 (M14): 20.2 µM (inactive)
GI50 (MCF7): 17.8 µM (inactive)
GI50 (MDA-MB-231): 10.2 µM (inactive)
GI50 (MDA-MB-435): 10.4 µM (inactive)
GI50 (MDA-N): 17.1 µM (inactive)
GI50 (MOLT-4): 13.3 µM (inactive)
GI50 (Malme-3M): 22.6 µM (inactive)
GI50 (NCI-H226): 36.6 µM (inactive)
GI50 (NCI-H23): 13.6 µM (inactive)
GI50 (NCI-H460): 5.38 µM (inactive)
GI50 (NCI-H522): 14 µM (inactive)
GI50 (NCI/ADR-RES): > 100 µM (inactive)
GI50 (OVCAR-3): 9.59 µM (inactive)
GI50 (OVCAR-4): 4.76 µM (inactive)
GI50 (OVCAR-5): 38.4 µM (inactive)
GI50 (OVCAR-8): 6.03 µM (inactive)
GI50 (PC-3): 6.9 µM (inactive)
GI50 (RPMI-8226): 17.1 µM (inactive)
GI50 (RXF 393): 35.3 µM (inactive)
GI50 (SF-268): 4.55 µM (inactive)
GI50 (SF-295): 13.3 µM (inactive)
GI50 (SF-539): 19.1 µM (inactive)
GI50 (SK-MEL-28): 15.2 µM (inactive)
GI50 (SK-MEL-2): 25.2 µM (inactive)
GI50 (SK-MEL-5): 17.3 µM (inactive)
GI50 (SK-OV-3): 16.6 µM (inactive)
GI50 (SN12C): 19.1 µM (inactive)
GI50 (SNB-19): 18.7 µM (inactive)
GI50 (SNB-75): 12.3 µM (inactive)
GI50 (SR): 13.3 µM (inactive)
GI50 (SW-620): 3.84 µM (inactive)
GI50 (T47D): 20.5 µM (inactive)
GI50 (TK-10): 24.3 µM (inactive)
GI50 (U-251): 12.8 µM (inactive)
GI50 (UACC-257): 38.8 µM (inactive)
GI50 (UACC-62): 25.1 µM (inactive)
GI50 (UO-31): > 100 µM (inactive)
